From patent US20230097580A1, “COMPOSITIONS AND METHODS FOR STIMULATING HAIR GROWTH” (Amplifica, Inc., priority 2020, published 2023)
Like-named read-outs stand apart in the source and are kept apart here.

System: dorsal skin of P53 mice
Settings: for hair growth induction: summary of figures; for induction (of anagen / hair growth): 25, 50, 100 µg/mL injections, overall, two mice; for hair growth in injection spot: 3 µL on 3 consecutive days, 18 days after injection; for pigmentation at injection site: at P14
Excerpt: Follow up experiments included lower HA concentrations (below 250 .mu·g/mL). A small incision was done using a thin needle (insulin syringe) to facilitate injection. […] In FIGS. 5-8, when looking at the back of the mouse with the mouse's head at the top, the control (1% BSA) injection is top left, the 25 .mu·g/ml injection is top right, the 100 .mu·g/ml injection is bottom right, and the 50 .mu·g/ml injection is bottom left.
FIGS. 5 and 6 show representative images of two mice, each of which received injections of low molecular weight HA. FIGS. 7 and 8 show representative images of two mice, each of which received injections of high molecular weight HA.
For high molecular weight the injection site was monitored for 18 days for full anagen.

| Substance | hair growth induction (50 µg/mL) | hair growth induction (100 µg/mL) | induction (of anagen / hair growth) | hair growth in injection spot (FIG. 7 mouse, 50 µg/ml) | hair growth in injection spot (FIG. 7 mouse, 100 µg/ml) | hair growth in injection spot (FIG. 8 mouse, 25 µg/ml) | hair growth in injection spot (FIG. 8 mouse, 50 µg/ml) | pigmentation at injection site | anagen spot at injection site (25 µg/mL, mouse 2 (FIG. 6), only in one mouse) | hair growth in injection spot (FIG. 5 mouse, 25 µg/ml) | hair growth in injection spot (FIG. 5 mouse, 100 µg/ml) | hair growth in injection spot (FIG. 6 mouse, 25 µg/ml) | hair growth in injection spot (FIG. 6 mouse, 100 µg/ml) |
| --- | --- | --- | --- | --- | --- | --- | --- | --- | --- | --- | --- | --- | --- |
| hyaluronic acid [high molecular weight HA] | induces | induces | good induction | growth | growth | growth | growth | apparent |  |  |  |  |  |
| hyaluronic acid [intermediate weight HA] |  |  | no induction |  |  |  |  |  |  |  |  |  |  |
| hyaluronic acid [low molecular weight HA] |  | induced hair growth | good induction |  |  |  |  | apparent | nice anagen spot | growth | growth | growth | growth |
